Test results as given in PubChem BioAssay AID1996.
Converted amounts (≈) assume the structure as drawn.

settings: buffer; pH 7.4; 200.0 µM

Row | Structure (SMILES) | solubility kinetic [µg/mL]
1 | COc1cccc(NC(=O)Nc2ccc3nc(C)c(C)nc3c2)c1 | 0.9 (≈ 2.79 µM)
2 | O=C(CN1CCN(S(=O)(=O)c2ccc(Cl)cc2)CC1)N1CCCC1 | 48.7 (≈ 131 µM)
3 | CCCC(C)NC(=O)C1c2ccccc2Oc2ccccc21 (centres undefined) | 1.2 (≈ 4.06 µM)
4 | COc1ccc(OC)c(NC(=O)CCOc2cccc(C)c2)c1 | 23 (≈ 72.9 µM)
5 | O=C(NCCc1ccc(F)cc1)c1ccc([N+](=O)[O-])cc1 | 4.6 (≈ 16 µM)
6 | COCCNC(=O)Cn1nc(C)c([N+](=O)[O-])c1C | > 38.4
7 | Cc1nc2ccc(NC(=O)c3ccc4ccccc4n3)cc2s1 | < 0.2
8 | O=C(Nc1cc2c(cc1Br)OCCCO2)c1cccnc1 | > 52.4
9 | c1ccc(COc2ccccc2CNC2CCCC2)cc1 | 38.5 (≈ 137 µM)
10 | COc1ccc(C(=O)N2CCCc3ccccc32)cc1OC | 32.4 (≈ 109 µM)
11 | CCN(CC)C(=O)COC(=O)C1=NN(c2cc(C)ccc2C)C(=O)CC1 | > 53.9
12 | CC(=O)c1cccc(NCC(=O)c2ccc(C)c([N+](=O)[O-])c2)c1 | 13.7 (≈ 43.9 µM)
13 | O=C(N/N=C\c1cccnc1)c1ccc(Cl)cc1Cl | > 44.1
14 | COC(=O)[C@H](CC(C)C)NC(=O)N1CCCCC1 | > 38.5
15 | CSc1ccc(S(=O)(=O)N2CC(=O)Nc3ccccc32)cc1 | 14.4 (≈ 43.1 µM)
16 | CN(C(=O)/C=C/c1cnc2ccccc2c1)C1CCCCC1 | > 44.2
17 | Nc1c(C(=O)Nc2ccccc2)c2nc3ccccc3nc2n1-c1ccc(O)cc1 | 0.7 (≈ 1.77 µM)
18 | CC(Cc1ccccc1)NC(=O)c1cc([N+](=O)[O-])ccc1Cl (centres undefined) | 10 (≈ 31.4 µM)
19 | CC(C)(C)Nc1nc(Cl)nc(NC2CCCCC2)n1 | 0.2 (≈ 0.705 µM)
20 | CN(CC(=O)Nc1ccccc1Cl)CC(=O)N(C)c1c(N)n(Cc2ccccc2)c(=O)[nH]c1=O | 65.2 (≈ 134 µM)

Row | Structure (SMILES) | solubility kinetic [µg/mL]
21 | CC(NC(=O)NC(=O)c1ccc(Cl)cc1Cl)C1CC1 (centres undefined) | 7.2 (≈ 23.9 µM)
22 | CCOC(=O)Cc1csc(N(C)C)n1 | 25.4 (≈ 119 µM)
23 | O=C(OCC(=O)c1ccc[nH]1)c1ccc([N+](=O)[O-])cc1 | 13.3 (≈ 48.5 µM)
24 | CC(OC(=O)c1ccccc1)C(=O)NCc1ccco1 (centres undefined) | > 41
25 | Cl.O=C(CN1CCCCC1)NC1CCc2cc3c(cc21)CCC3 (centres undefined) | 45.6
26 | CN1CCN(CCCN2c3ccccc3Sc3ccc(Cl)cc32)CC1.O=S(=O)(O)CCS(=O)(=O)O | 73.3
27 | CC(CN1CCCC1)OC(=O)c1cccc(F)c1.Cl (centres undefined) | 39.6
28 | O=C(CCCc1ccccc1)NCc1ccccn1 | 29.2 (≈ 115 µM)
29 | O=C(NC1CCCc2ccccc21)N[C@@H](Cc1ccccc1)C(=O)O (some centres undefined) | > 50.8
30 | Cn1c(=O)c(C(=O)NCc2ccccc2)c(O)c2ccccc21 | < 0.3
31 | COc1ccccc1C(=O)NC(CCSC)C(=O)NC1CC1 (centres undefined) | > 48.4
32 | CC(=O)Nc1cc(C)c2nc(NC(C)=O)sc2c1 | 25.7 (≈ 97.6 µM)
33 | O=C(Nc1ccc(Cl)cc1)Nc1ccccn1 | 0.6 (≈ 2.42 µM)
34 | COc1ccc(C)cc1S(=O)(=O)NCCN1CCOCC1 | > 47.2
35 | O=C(C1CC1)N1CCN(c2ccc([N+](=O)[O-])cc2-n2cccc2)CC1 | 6.3 (≈ 18.5 µM)
36 | O=C(COc1ccc(Cl)cc1Br)NC(=O)NC1CCCC1 | 6.4 (≈ 17 µM)
37 | COC(=O)c1sccc1NC(=S)Nc1ccc(F)cc1F | 42 (≈ 128 µM)
38 | Cc1ccc(C(=O)Nc2cc(C)nn2CCC#N)cc1 | > 40.2
39 | CCOc1ccc(/C=C/c2nc(C#N)c(NCCCOC)o2)cc1 | 3.4 (≈ 10.4 µM)
40 | COCC(=O)Nc1ccc(S(=O)(=O)N2CCCC2)cc1 | > 44.8

Row | Structure (SMILES) | solubility kinetic [µg/mL]
41 | C#CCOC(=O)CN1C(=O)c2cccc3cccc(c23)C1=O | < 0.6
42 | CC1=C([N+](=O)[O-])C(c2ccc(O)c(O)c2)NC(=O)N1 (centres undefined) | > 39.8
43 | Cc1cc(C)cc(Nc2ccc3nonc3c2[N+](=O)[O-])c1 | 1.1 (≈ 3.87 µM)
44 | O=C(Nc1ccc(N2CCCC2)cc1)c1ccc(Cl)cc1Cl | 0.5 (≈ 1.49 µM)
45 | COc1ccccc1C(=O)COC(=O)c1ccc(Cl)nc1 | 44.6 (≈ 146 µM)
46 | Cc1cnc(NC(=O)Cc2ccc(S(=O)(=O)N3CCOCC3)s2)s1 | 19.7 (≈ 50.8 µM)
47 | Cc1noc(C)c1C(=O)Nc1cc(Cl)ccc1N1CCOCC1 | 13.5 (≈ 40.2 µM)
48 | O=C(NCC(=O)N1CCCCCC1)c1ccc(OC(F)F)cc1 | > 49
49 | O=C(Nc1cnccn1)c1ccc(Cl)cc1 | 34.7 (≈ 149 µM)
50 | C/C=C/C(=O)OCc1csc(CC(=O)Nc2ccccc2C)n1 | > 49.6
51 | Cc1ccc(C(=O)OCC(=O)NCCN2C(=O)CSC2=O)cc1[N+](=O)[O-] | > 57.2
52 | CCOC(=O)C1=C(C)NC(C)=C(C(=O)OCC)C1C(=O)OCC(=O)N1CCC(C)CC1 | 15.9 (≈ 36.4 µM)
53 | COC(=O)c1[nH]c2ccccc2c1Sc1ccccc1 | 0.9 (≈ 3.18 µM)
54 | CC(=O)Nc1ccc(Nc2cc(C)c3ccccc3n2)cc1 | 41.6 (≈ 143 µM)
55 | O=C(CNC(=O)c1cccc(F)c1)N/N=C/c1cccnc1 | > 45
56 | O=C(COC(=O)c1ccc[nH]c1=O)NC1CCCCCCC1 | 41.5 (≈ 135 µM)
57 | COc1cc(OC)cc(C(=O)N[C@H](C(=O)NC2CCCc3ccccc32)C(C)C)c1 (some centres undefined) | 1.9 (≈ 4.63 µM)
58 | CCN1C(=O)c2ccc(C(=O)Nc3c(C)cc(C)cc3C)cc2C1=O | < 0.4
59 | CC(=O)Nc1cccc(OCC(=O)Nc2sccc2C(N)=O)c1 | 4.9 (≈ 14.7 µM)
